From patent publication US10793563B2, “GCN2 inhibitors and uses thereof” (Merck Patent GmbH, priority 2018, dated 2020) come the findings set out here.

pIC50: −log10 of the molar value.

For orientation: pIC50 means the IC50 on a negative log10 scale, so that one unit is a factor of ten.

Chain of GCN2 kinase (Q9P2K8 whole entry): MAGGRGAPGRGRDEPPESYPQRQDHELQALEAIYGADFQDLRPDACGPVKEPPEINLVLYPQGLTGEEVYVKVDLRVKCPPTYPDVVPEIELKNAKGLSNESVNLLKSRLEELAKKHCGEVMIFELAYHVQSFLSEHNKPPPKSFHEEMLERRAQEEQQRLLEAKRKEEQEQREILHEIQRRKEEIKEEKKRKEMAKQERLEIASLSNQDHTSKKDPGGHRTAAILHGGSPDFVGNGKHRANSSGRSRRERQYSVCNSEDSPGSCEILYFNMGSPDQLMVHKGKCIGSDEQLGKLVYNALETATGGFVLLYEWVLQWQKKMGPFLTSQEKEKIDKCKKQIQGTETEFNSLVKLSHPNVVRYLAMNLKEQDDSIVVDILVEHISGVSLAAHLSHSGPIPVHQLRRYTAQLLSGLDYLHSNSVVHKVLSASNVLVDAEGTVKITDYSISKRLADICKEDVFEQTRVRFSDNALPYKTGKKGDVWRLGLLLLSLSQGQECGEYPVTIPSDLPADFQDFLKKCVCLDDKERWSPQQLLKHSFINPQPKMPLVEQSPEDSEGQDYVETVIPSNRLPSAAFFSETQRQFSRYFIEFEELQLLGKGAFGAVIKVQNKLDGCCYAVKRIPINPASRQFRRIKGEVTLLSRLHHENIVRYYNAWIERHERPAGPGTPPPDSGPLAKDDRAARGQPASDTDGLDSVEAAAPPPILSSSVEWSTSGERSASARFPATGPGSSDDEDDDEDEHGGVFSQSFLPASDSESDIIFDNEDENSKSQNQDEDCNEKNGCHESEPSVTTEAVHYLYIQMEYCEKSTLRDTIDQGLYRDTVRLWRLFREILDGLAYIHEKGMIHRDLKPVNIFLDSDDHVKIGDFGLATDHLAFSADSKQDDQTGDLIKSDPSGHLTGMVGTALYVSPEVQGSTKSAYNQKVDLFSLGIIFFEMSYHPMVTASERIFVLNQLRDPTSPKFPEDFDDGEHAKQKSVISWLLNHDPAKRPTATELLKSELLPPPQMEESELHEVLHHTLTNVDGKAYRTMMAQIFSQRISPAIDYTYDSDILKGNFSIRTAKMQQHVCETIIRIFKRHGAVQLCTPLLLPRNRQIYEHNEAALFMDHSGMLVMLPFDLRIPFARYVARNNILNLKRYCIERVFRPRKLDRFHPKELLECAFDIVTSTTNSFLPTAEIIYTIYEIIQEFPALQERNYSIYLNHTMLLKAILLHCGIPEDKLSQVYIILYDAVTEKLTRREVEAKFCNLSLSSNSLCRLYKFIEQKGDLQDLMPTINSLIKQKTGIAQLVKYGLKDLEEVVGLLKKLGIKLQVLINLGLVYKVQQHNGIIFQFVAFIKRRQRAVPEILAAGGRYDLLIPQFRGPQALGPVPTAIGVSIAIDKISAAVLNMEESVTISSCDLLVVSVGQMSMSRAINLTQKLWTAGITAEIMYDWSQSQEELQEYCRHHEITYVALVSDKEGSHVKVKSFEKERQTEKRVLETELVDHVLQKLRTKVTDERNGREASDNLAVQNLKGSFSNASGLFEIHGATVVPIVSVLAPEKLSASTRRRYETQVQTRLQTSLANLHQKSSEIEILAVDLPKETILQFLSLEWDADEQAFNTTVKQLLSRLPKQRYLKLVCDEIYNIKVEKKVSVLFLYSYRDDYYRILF
Chain of intracellular GCN2 (phosphorylation of the GCN2 substrate eIF2α) (Q9P2K8 whole entry): as above

One test addresses intracellular GCN2 (phosphorylation of the GCN2 substrate eIF2α) (Homo sapiens (Human), UniProt Q9P2K8). Description: GCN2 Cellular Inhibition Assay (AlphaScreen SureFire P-eIF2α Ser51, borrelidin-treated U2OS cells). It counts as cell-based. The note with it: 10 μM borrelidin, 1 h, phosphorylated eIF2α Ser51, read-out: GCN2 Biomarker (IC50). The protocol:
Compounds can be screened for their ability to inhibit intracellular GCN2 using an AlphaScreen assay (Perkin Elmer) to detect phosphorylation of the GCN2 substrate eIF2α in borrelidin-treated cells. U2OS cells are plated at 5,000 cells per well in 384-well white polystyrene plates (Corning 3570) in McCoy's 5A media (GIBCO 26600-023) supplemented with 10% foetal bovine serum (SAFC 12103C), Penicillin/Streptomycin solution diluted 1:100 (Sigma P0781), and 2 mM L-glutamine (Sigma G7513), and allowed to adhere overnight at 37° C. in 5% CO2. Compounds are then added to the cell media from a final concentration of 40 μM in 4-fold serial dilutions. Borrelidin (FluoroChem M01440) is immediately added to the wells to a final concentration of 10 μM and the cells are incubated for 1 h at 37° C. in 5% CO2. After 1 h of treatment with borrelidin, the media is removed, and the cells are lysed with lysis buffer (TGR BioSceinces TGRLB) at ambient temperature.
An AlphaScreen SureFire P-eIF2α (Ser51) assay kit (Perkin Elmer TGREIF2S) was used to measure levels of eIF2α phosphorylated on Serine 51. Anti-phosphorylated eIF2α Ser51 antibody-linked acceptor beads (TGR BioScience 6760617) are added to the cell homogenate (diluted 1:250 into a mixture of activation (TGR BioScience TGRAB) and reaction buffer (TGR BioScience TGREIF2S) prepared immediately before use). The plate is then incubated for 2 h at ambient temperature in the dark. Anti-eIF2α antibody-linked donor beads (TGR BioScience 6760617) were then added (diluted 1:100 in dilution buffer (TGR BioScience TGRDB) prepared immediately before use). The plate is then incubated overnight at ambient temperature in the dark.
Plates are analyzed on an Alpha Technology-compatible PHERAstar FS plate reader (BMG Labtech Version 1.14) to quantify phosphorylated eIF2α Ser51 levels. The percentage inhibition of phosphorylated eIF2α is calculated by comparison to control wells stimulated with borrelidin alone.
For orientation: Bead proximity is the source of the signal in Alpha formats.
In the case of `C[C@@H]1CN(c2nccc(-c3cnc4ccc(C(F)(F)F)cn34)n2)C[C@H](c2cn[nH]c2)O1` (relative stereo) [I-117, cis-2-Methyl-6-(1H-pyrazol-4-yl)-4-{4-[6-(trifluoromethyl)imidazo[1,2-a]pyridin-3-yl]pyrimidin-2-yl}morpholine], the negative-log IC50 (pIC50) is > 6.30.

Consider `FC(F)(F)c1ccc2ncc(-c3nccc(N4CCN(C[C@H]5CC56CC6)[C@@H](c5cn[nH]c5)C4)n3)n2c1` [I-553, 3-(4-((S)-3-(1H-pyrazol-4-yl)-4-(((S)-spiro[2.2]pentan-1-yl)methyl)piperazin-1-yl)pyrimidin-2-yl)-6-(trifluoromethyl)imidazo[1,2-a]pyridine], for which the negative logarithm of the IC50 (pIC50) is > 6.30. As for `C[C@@H]1CN(c2nccc(-c3cnc4ccc(C(F)(F)F)cn34)n2)C[C@H](c2cn[nH]c2)O1` [I-118], the negative logarithm of the IC50 (pIC50) is > 6.30. On the same count and under the same terms, next, `Cc1n[nH]cc1[C@H]1CN(c2ccnc(-c3cnc4ccc(C(F)(F)F)cn34)n2)C[C@@H](C)O1` [I-120]: > 6.30. Still for that read-out and setting: the value for `FC(F)(F)c1ccc2ncc(-c3nccc(N4CCN(C[C@@H]5CC56CC6)[C@H](c5cn[nH]c5)C4)n3)n2c1` [I-552, 3-(4-((R)-3-(1H-pyrazol-4-yl)-4-(((R)-spiro[2.2]pentan-1-yl)methyl)piperazin-1-yl)pyrimidin-2-yl)-6-(trifluoromethyl)imidazo[1,2-a]pyridine] was > 6.30; that for `FC(F)(F)c1ccc2ncc(-c3nccc(N4CCOC(c5cn[nH]c5)C4)n3)n2c1` (centres unmarked) [I-2, 1H-Pyrazol-4-yl-4-[2-[6-(trifluoromethyl)imidazo[1,2-a]pyridin-3-yl]pyrimidin-4-yl]morpholine] was > 6.30; that for `FC(F)(F)c1ccc2ncc(-c3ccnc(N4CCOC(c5cn[nH]c5)C4)n3)n2c1` (centres unmarked) [I-44, 2-(1H-Pyrazol-4-yl)-4-[4-[6-(trifluoromethyl)imidazo[1,2-a]pyridin-3-yl]pyrimidin-2-yl]morpholine] was > 6.30. As to `FC(F)(F)c1ccc2ncc(-c3nccc(N4CCOC(c5cn[nH]c5)C4)n3)n2c1` (centres unmarked) [I-3, 1H-pyrazol-4-yl-4-[2-[6-(trifluoromethyl)imidazo[1,2-a]pyridin-3-yl]pyrimidin-4-yl]morpholine], the pIC50 was > 6.30.

On to `FC(F)(F)c1ccc2ncc(-c3ccnc(N4CCOC(c5cn[nH]c5)C4)n3)n2c1` (centres unmarked) [I-10, 2-(1H-pyrazol-4-yl)-4-(4-(6-(trifluoromethyl)imidazo[1,2-a]pyridin-3-yl)pyrimidin-2-yl)morpholine], for which the pIC50 is > 6.30.

The target of a further test is GCN2 kinase (Homo sapiens (Human), UniProt Q9P2K8). Description: GCN2 Enzyme Inhibition Assay (Transcreener ADP2 fluorescence polarization). It counts as biochemical. Particulars: 280 μM ATP, 200 μM (RS)7 peptide, 4 nM GCN2, 25° C. In outline:
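Transcreener ADP2 fluorescence polarization detection of ADP from 4 nM GCN2 with (RS)7 substrate in 25 mM Tris-HCl pH 7.5, 50 mM NaCl, 10 mM MgCl2, 1 mM DTT. Compound pre-incubated with enzyme 10 min at 25 °C; reaction started by ATP, run 1 h at 25 °C. IC50 and Ki(app) by tight-binding fit.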
(Polarisation of emitted light reports the rotation of a fluorescent probe.)
On to `O=C1NC[C@]12CCCN(c1ccnc(-c3cnc4ccc(C(F)(F)F)cn34)n1)C2` [I-296, (S)-6-(2-(6-(trifluoromethyl)imidazo[1,2-a]pyridin-3-yl)pyrimidin-4-yl)-2,6-diazaspiro[3.5]nonan-1-one], for which the pIC50 is 6.00 to 7.00. `C[C@H]1CN(c2ccnc(-c3cnc4ccc(C(F)(F)F)cn34)n2)C[C@@H](C(N)=O)O1` [I-264, (2S,6S)-6-methyl-4-(2-(6-(trifluoromethyl)imidazo[1,2-a]pyridin-3-yl)pyrimidin-4-yl)morpholine-2-carboxamide]: the pIC50 is > 8.00. Regarding `C[C@H]1C[C@@H](N=S(C)(C)=O)CN(c2ccnc(-c3cnc4ccc(S(N)(=O)=O)cn34)n2)C1` [I-328, 3-(4-((3R,5S)-3-((dimethyl(oxo)-λ6-sulfaneylidene)amino)-5-methylpiperidin-1-yl)pyrimidin-2-yl)imidazo[1,2-a]pyridine-6-sulfonamide], the pIC50 is 6.00 to 7.00. Turning to `Cc1noc(C2CN(c3ccnc(-c4cnc5ccc(C(F)(F)F)cn45)n3)CCN2C)n1` (centres unmarked) [I-332, 3-methyl-5-(1-methyl-4-(2-(6-(trifluoromethyl)imidazo[1,2-a]pyridin-3-yl)pyrimidin-4-yl)piperazin-2-yl)-1,2,4-oxadiazole], the pIC50 is 6.00 to 7.00.

In the case of `C[C@H]1[C@@H](C(N)=O)NCCN1c1ccnc(-c2cnc3ccc(C(F)(F)F)cn23)n1` [I-435, (2S,3 S)-3-methyl-4-(2-(6-(trifluoromethyl)imidazo[1,2-a]pyridin-3-yl)pyrimidin-4-yl)piperazine-2-carboxamide], the pIC50 was > 8.00.
